From patent EP4650362A1, “NEUROPROTECTIVE PSD-95 POLYPEPTIDE INHIBITOR AND USE THEREOF” (Beijing Tuo Jie Biopharmaceutical Co. Ltd., priority 2023, dated 2024) come the findings set out here.

Data set [1] is described as follows: plasma stability test, human plasma. To be noted: for Relative remaining compound content (%): 0min (standard 100%). It counts as in vitro ADME. How it is done: Solution preparation: An appropriate amount of a test polypeptide compound was weighed out and dissolved in an appropriate amount of 1× PBS to form a 1 mM test solution. NA-1 and NoNO42 were used as positive drugs, propantheline bromide was used as a human plasma test control, and lovastatin was used as a rat plasma test control. Plasma stability test: 12.5 µL of the 1 mM test solution was added to a 495 µL pre-incubated plasma sample. […] For each incubation time, two parallel samples were set. Subsequently, 200 µL of stop solution was added to stop the incubation, and the mixtures were vortexed for 5 min. Then the mixtures were centrifuged at 10,000 rpm at 4 °C for 10 min to remove the protein in the sample, and 70 µL of the supernatant was transferred to a new 96-well plate (70 µL of water was added to each well beforehand) and well mixed. […] Sample pretreatment: […] LC-MS analysis: […] (2) Mass-spectrometric conditions: The mass spectrometry analysis used an electrospray ionization (ESI) source, a positive ion analysis mode, and a multi-reaction monitoring (MRM) scan mode. […] The plasma stability of the polypeptide compound

Another data set deals with T1, human PSD95-PDZ2 (Homo sapiens, UniProt P78352).
T1 construct: PDZ2 (155-249, the Flag-His-Avitag-TEVsite tag is italicized); made in house; host or cells: E. coli BL21-DE3 (PET vector)
The data set is described as follows: competitive ELISA, affinity for human PSD95-PDZ2. It counts as binding. From the text:
The objective of this test example was to determine the affinities of polypeptide compounds for human PSD95-PDZ2 using competitive ELISAs.
The amino acid sequence of PDZ2 protein was designed using human PSD95 (Uniprot Entry: P78352) as a template for PDZ: PDZ2 (155-249, the Flag-His-Avitag-TEVsite tag is italicized and was subsequently used for purification and biotinylation): […]
[…] (SEQ ID NO. 62). The PDZ2 gene was constructed onto a PET expression vector, and induced expression was performed using BL21-DE3 E. coli cells under conditions of 37 °C and 1 mM IPTG 4 h. Then centrifugation was performed at 10,000 g at 4 °C for 10 min, and the cell pellets were collected, resuspended in 1× PBS solution, and then lysed using a homogenizer. The lysate was centrifuged at high speed, and the supernatant was collected and filtered through a 0.45 µm membrane. A Ni-Sepharose affinity column was equilibrated with 5 column volumes of a 20 mM phosphate buffer (pH 8.0). The sample was centrifuged at high speed to remove impurities and loaded onto the column for binding. The column was rinsed with the 20 mM phosphate buffer until the A280 reading dropped to the baseline. Gradient elution was then performed with the 20 mM phosphate buffer and 0-500 mM imidazole. A protein was collected, and whether it was the target protein was determined. The purified sample described above was buffer-exchanged into 1× PBS solution, and the resulting solution was concentrated to a volume of 2 mL and further purified using a Superdex200 gel chromatography column (GE) equilibrated with 1× PBS. The target peak was collected and aliquoted for later use.
PSD95-PDZ2 (the tag was removed by TEV enzyme) was diluted with 1× PBS buffer to 1 µg/mL, added to a 96-well microplate (Corning, 9018, 25/box 96-well clear flat bottom plate) at 100 µL/well, and left to stand overnight at 4 °C for 16-20 h. After the liquid was discarded, the plate was washed three times with PBST (pH 7.4, 0.05% Tween-20) buffer, and a 4% BSA blocking solution diluted with PBST buffer was then added (300 µL/well). The plate was blocked by incubation in an incubator at 37 °C for 1 h. After the blocking was complete, the blocking solution was discarded, and the plate was washed three times with PBST buffer. Biotin-NA-1, at a constant concentration of 0.3 µM, and the test compounds, having a starting concentration of 100 µM and serially diluted ten-fold with PBS buffer to seven concentrations (100, 10, 1, 0.1, 0.01, 0.001, 0.0001, and 0 µM), were then added, and the plate was incubated in an incubator at 37 °C for 1 h. After the incubation was complete, the reaction solutions in the microplate were discarded, and the plate was washed three times with PBST. 100 µL of HRP-SA secondary antibody (diluted at 1:2000) was added to each well, and the plate was incubated at 37 °C for 1 h. After the plate was washed three times with PBST, 100 µL of TMB chromogenic substrate was added. The plate was incubated at room temperature for 1-3 min, and 100 µL of 1 M sulfuric acid was added to stop the reaction.
The absorbance at 450 nm was measured using a SpectraMax M5 microplate reader, and non-linear fitting was performed using GraphPad Prism 9 to calculate the binding IC50 values of the test compounds to PSD95-PDZ2 protein.

A further data set deals with T2, human PSD95-PDZ3 (Homo sapiens, UniProt P78352).
T2 construct: PDZ3 (309-401, Flag-His-Avitag-TEVsite tag); made in house
T2 sequence (P78352 309-401): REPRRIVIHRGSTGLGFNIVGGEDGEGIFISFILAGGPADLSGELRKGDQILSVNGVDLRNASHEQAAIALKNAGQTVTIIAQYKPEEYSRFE
Briefly: binding ELISA with Biotin-PDZ3. The source says:
The three PDZ domains in the PSD95 protein are structurally similar. Binding to the PDZ1 and PDZ2 domains can effectively block PSD95-mediated neuroexcitotoxicity. However, the biological function of binding to the PDZ3 domain is unclear. Therefore, to avoid potential safety concerns, this test example assessed the selectivity of polypeptide compounds for the PDZ2 and PDZ3 domains, aiming to identify polypeptide compounds that specifically bind to the PDZ2 domain. The expression and purification of PSD95-PDZ3 protein were carried out with reference to the steps in 3.1.2. The amino acid sequence of PDZ3 protein: […] Site-specifically biotinylated Biotin-PDZ2 and Biotin-PDZ3 proteins were used for binding ELISA assays. […] After the blocking was complete, the blocking solution was discarded, and the plate was washed three times with PBST buffer. […] After the incubation was complete, the reaction solutions in the microplate were discarded, and the plate was washed three times with PBST. 100 μL of HRP-SA secondary antibody (diluted at 1:2000) was added to each well, and the plate was incubated at 37 °C for 1 h. After the plate was washed three times with PBST, 100 μL of TMB chromogenic substrate was added. […] The absorbance at 450 nm was measured using a SpectraMax M5 microplate reader, and the binding EC50 values of the test compounds to Biotin-PDZ2 or Biotin-PDZ3 were calculated using GraphPad Prism 9. […] The abilities of polypeptide compounds to bind to human PSD95-PDZ2 and human PSD95-PDZ3
For orientation: An ELISA detects its analyte on a solid surface through an enzyme-linked reagent.

Where [2] appears, read: Human plasma, 25 µM, 10min, read-out: Relative remaining compound content (%).
The mark [3] stands for this setting: Human plasma, 25 µM, 20min, read-out: Relative remaining compound content (%).
Where [4] appears, read: Human plasma, 25 µM, 30min, read-out: Relative remaining compound content (%).
The mark [5] stands for this setting: Human plasma, 25 µM, 60min, read-out: Relative remaining compound content (%).
[6] abbreviates: Human plasma, 25 µM, 120min, read-out: Relative remaining compound content (%).
The mark [7] stands for this setting: competitive ELISA against 0.3 µM Biotin-NA-1, error of this test within three times, read-out: IC50.

Like-named read-outs stand apart in the source and are kept apart here. Non-standard residues stand in square brackets, D forms with d. Residues, ends and D or L forms follow the SMILES beside them. No end group written: not given here. Tle = CC(C)(C)[C@H](N)C(=O)O; Dab = NCC[C@H](N)C(=O)O; Aib = CC(C)(N)C(=O)O Where only a bound is given, the exact number is not on record here.

Turning to `CC[C@H](C)[C@H](NC(=O)[C@H](CO)NC(=O)[C@H](CO)NC(=O)[C@H](CC(C)C)NC(=O)[C@@H](CCCCN)NC(=O)[C@H](CCCNC(=N)N)NC(=O)[C@H](CCCNC(=N)N)NC(=O)[C@@H](CCCNC(=N)N)NC(=O)[C@H](CCC(N)=O)NC(=O)[C@@H](CCCNC(=N)N)NC(=O)[C@H](CCCNC(=N)N)NC(=O)[C@H](CCCCN)NC(=O)[C@H](CCCCN)NC(=O)[C@@H](CCCNC(=N)N)NC(=O)CNC(=O)[C@@H](N)Cc1ccc(O)cc1)C(=O)N[C@@H](CCC(=O)O)C(=O)N[C@@H](CO)C(=O)N[C@@H](CC(=O)O)C(=O)N[C@H](C(=O)O)C(C)C` [NoNO42, YGrKKRrQrRRkLSSIESDV, reference compound] (H-YG[dR]KKR[dR]Q[dR]RR[dK]LSSIESDV-OH), in data set [1] (human, plasma), the fraction remaining at 10 min, 25 µM is 104%; the fraction remaining at 20 min, 25 µM was 104%; the share remaining at 0.5 h, 25 µM stood at 107%; the share remaining at 1 h, 25 µM came to 99.3%. Further, the fraction remaining at 2 h, 25 µM in data set [1] (human, plasma) turned out to be 107%. At human PSD95-PDZ2, the IC50 (as a rule, the concentration at which inhibition is half-maximal) came out at 917 nM. Further, the EC50 (usually the midpoint of the concentration-response curve) on human PSD95-PDZ3 is > 1 mM.

In the case of `CC(C)[C@H](NC(=O)[C@H](CC(=O)O)NC(=O)[C@@H](NC(=O)[C@@H](NC(=O)[C@@H](NC(=O)[C@@H](NC(=O)[C@H](CCN)NC(=O)C(C)(C)NC(=O)CNC(=O)[C@@H](CCCNC(=N)N)NC(=O)[C@@H](CCCNC(=N)N)NC(=O)[C@@H](CCCNC(=N)N)NC(=O)[C@@H](CCC(N)=O)NC(=O)[C@@H](CCCNC(=N)N)NC(=O)[C@@H](CCCNC(=N)N)NC(=O)[C@@H](CCCCN)NC(=O)[C@@H](CCCCN)NC(=O)[C@@H](CCCNC(=N)N)NC(=O)CNC(=O)[C@H](N)Cc1ccc(O)cc1)[C@@H](C)O)C(C)(C)C)C(C)(C)C)[C@@H](C)O)C(=O)O` [Polypeptide compound 14, y-G-r-k-k-r-r-q-r-r-r-G-Aib-Dab-T-Tle-Tle-T-D-V] (H-[dY]G[dR][dK][dK][dR][dR][dQ][dR][dR][dR]G[Aib][Dab]T[Tle][Tle]TDV-OH), the “Relative remaining compound content (%)” value in data set [1] (Human plasma, 25 µM) is recorded as 100.0%. For the same compound, in data set [1] (setting [2]), the fraction remaining at 10 min, 25 µM was 102%. Moreover, the share remaining at 20 min, 25 µM in data set [1] (setting [3]) is 101%. In data set [1] (setting [4]), the share remaining at 0.5 h, 25 µM stood at 97.3%. For the same compound, in data set [1] (setting [5]), the fraction remaining at 1 h, 25 µM worked out at 103%. Moreover, in data set [1] (setting [6]), the share remaining at 2 h, 25 µM worked out at 105%. The IC50 at human PSD95-PDZ2 (setting [7]) was 713 nM. For the same compound, the EC50 at human PSD95-PDZ3 (plate coated with 2 µM test compound, Biotin-PDZ3 titrated, read-out: EC50 (PDZ3)) is > 1 mM.

With `CC(C)[C@H](NC(=O)[C@H](CC(=O)O)NC(=O)[C@@H](NC(=O)[C@@H](NC(=O)[C@@H](NC(=O)[C@@H](NC(=O)[C@H](CCN)NC(=O)C(C)(C)NC(=O)CNC(=O)[C@@H](CCCNC(=N)N)NC(=O)[C@H](CCCNC(=N)N)NC(=O)[C@H](CCCNC(=N)N)NC(=O)[C@H](CCC(N)=O)NC(=O)[C@@H](CCCNC(=N)N)NC(=O)[C@H](CCCNC(=N)N)NC(=O)[C@H](CCCCN)NC(=O)[C@H](CCCCN)NC(=O)[C@H](N)CCCNC(=N)N)[C@@H](C)O)C(C)(C)C)C(C)(C)C)[C@@H](C)O)C(=O)O` [Polypeptide compound 22, r-K-K-R-r-Q-R-R-r-G-Aib-Dab-T-Tle-Tle-T-D-V] (H-[dR]KKR[dR]QRR[dR]G[Aib][Dab]T[Tle][Tle]TDV-OH), the “Relative remaining compound content (%)” value in data set [1] (Human plasma, 25 µM) is on record as 100.0%. In addition, the fraction remaining at 10 min, 25 µM in data set [1] (setting [2]) is 99.5%. Also, the share remaining at 20 min, 25 µM in data set [1] (setting [3]) came to 97%. Further, the share remaining at 0.5 h, 25 µM in data set [1] (setting [4]) came to 104%. In data set [1] (setting [5]), the fraction remaining at 1 h, 25 µM was found to be 98%. Also, the fraction remaining at 2 h, 25 µM in data set [1] (setting [6]) worked out at 90.1%. Moreover, the IC50 on human PSD95-PDZ2 (setting [7]) was found to be 881 nM.

On to “YGRKKRRQRRRKLSSIESDV [NA-1, YGRKKRRQR RRKLSSIESDV, reference compound]”, for which, in data set [1] (Human plasma, 25 µM), the “Relative remaining compound content (%)” value is 100.0%. Moreover, the fraction remaining at 10 min, 25 µM in data set [1] (setting [2]) came out at 76.4%. For the same compound, in data set [1] (setting [3]), the amount remaining at 20 min, 25 µM turned out to be 74.9%. In data set [1] (setting [4]), the fraction remaining at 0.5 h, 25 µM amounted to 70.6%. Further, the fraction remaining at 1 h, 25 µM in data set [1] (setting [5]) amounted to 53.9%. Further, the amount remaining at 2 h, 25 µM in data set [1] (setting [6]) was 25.1%. At human PSD95-PDZ2, this compound came in with an IC50 of 909 nM. Further, on human PSD95-PDZ3, the EC50 was > 1 mM.
